≈ marks a conversion by molar mass, not a printed value. Where two headings read alike, the source gives them in different places.
Tests used:
A. baumannii 1650 [1] = experiment: MIC assay, strain 1650; assay type: cell-based, Acinetobacter baumannii; settings: Acinetobacter baumannii, strain 1650
Procedure: (§1) MIC and MBC assays were performed in this study as documented by us previously.^17,23,24,25 The A. baumannii strains used are detailed in Table 7.

human HepG2 cells = assay type: cell-based
Procedure: Cytotoxicity assays were performed using human HepG2 cells (human liver epithelial with hepatocellular carcinoma), as described by us previously.^17,24 Cells were cultured in Dulbecco's modified eagle medium (DMEM), supplemented with 10% fetal bovine serum and 1% penicillin-streptomycin for 3 days at 37° C. and 5% CO2. Cells were then diluted to 1×10^5 ml^−1 using fresh DMEM and added to 96 well tissue culture plates at a volume of 100 μL. Plates were incubated for 24 hours at 37° C. and 5% CO2, allowing the cells to adhere to the plastic. […] Plates were then incubated for 48 hours at 37° C. and 5% CO2. After 48 hours the DMEM was removed and 100 μL of new media was added containing MTT (3-(4, 5-dimethylthiazol-2-yl)-2, 5-diphenyltetrazolium bromide), followed by incubation for four hours at 37° C. and 5% CO2. […] Lead compounds were solvated in 100% DMSO for these studies, which served as the negative control. LD50 values were determined for each compound by comparison to vehicle only controls.

A. baumannii 1646 [2] = experiment: MIC assay, strain 1646; assay type: cell-based, Acinetobacter baumannii; settings: Acinetobacter baumannii
Procedure: as §1

A. baumannii 1649 [3] = experiment: MIC assay, strain 1649; assay type: cell-based, Acinetobacter baumannii; settings: Acinetobacter baumannii, strain 1649
Procedure: as §1

A. baumannii 1651 [4] = experiment: MIC assay, strain 1651; assay type: cell-based, Acinetobacter baumannii; settings: Acinetobacter baumannii, strain 1651
Procedure: as §1

A. baumannii strain 1403 = assay type: cell-based, Acinetobacter baumannii; settings: serial passage, 8 days, start 0.5× MIC
Procedure: An important attribute of novel antibiotics is the ability to fend off the development of resistance towards their effects. To assess this capacity, A. baumannii strains were incubated overnight with 0.5× MIC of each of the frontrunners. The next day cells were washed and used to inoculate fresh media that contained a two-fold increase in drug. This was repeated for a total of 8 days, alongside sulfamethoxazole (SMX) and trimethoprim (TMP) controls, both of which target the same pathway as our lead agents (FIG. 2).
In order to test potential resistance towards the quinazolines, a serial passage assay was performed alongside control compounds (Sulfamethoxazole and Trimethoprim), as described by us previously.^24 A. baumannii strain 1403 was grown overnight in LB media at 37° C. The next day cultures were diluted 1:100 in fresh media and seeded into a 96-well plate. Lead quinazolines or control agents were added to respective wells at half MIC concentrations. […] These were then grown overnight, and the procedure repeated for a total of eight days.

A. baumannii 1652 [5] = experiment: MIC assay, strain 1652; assay type: cell-based, Acinetobacter baumannii; settings: Acinetobacter baumannii, strain 1652
Procedure: as §1

A. baumannii 1403 [6] = experiment: MIC assay, strain 1403; assay type: cell-based, Acinetobacter baumannii; settings: Acinetobacter baumannii, strain 1403
Procedure: as §1

[7] = system: A. baumannii 1650 biofilm; experiment: biofilm eradication determination assay, strain 1650; assay type: cell-based, Acinetobacter baumannii; settings: 90% biofilm eradication, Table 8
Procedure: (§2) These assays were performed as described by us previously,^26,24 as follows. Each of the A. baumannii strains were grown overnight in Mueller Hinton Broth (MHB). The next day these were used to seed fresh MHB to an OD600 of 0.5, with 150 μL then added to the wells of a 96 well plate and grown for 24 hours at 37° C. After 24 hours, the planktonic bacteria were carefully removed and fresh MHB was added with increasing concentrations of lead quinazolines. After incubation at 37° C. for 24 hours, planktonic cells were removed and biofilms were washed three times with phosphate buffered saline (PBS). Biofilms were then resuspended in PBS and plated for cell viability on tryptic soy agar. Biofilm recovery was assessed compared to no drug controls, and determined as percent eradication. This was used to determine MBEC90 values (Minimal Biofilm Eradication Concentration), where the viability of cells within the biofilm was reduced by 90%.

[8] = system: A. baumannii 1403 biofilm; experiment: biofilm eradication determination assay, strain 1403; assay type: cell-based, Acinetobacter baumannii; settings: 90% biofilm eradication, Table 8
Procedure: as §2

[9] = system: A. baumannii 1652 biofilm; experiment: biofilm eradication determination assay, strain 1652; assay type: cell-based, Acinetobacter baumannii; settings: 90% biofilm eradication, Table 8
Procedure: as §2

[10] = system: A. baumannii 1649 biofilm; experiment: biofilm eradication determination assay, strain 1649; assay type: cell-based, Acinetobacter baumannii; settings: 90% biofilm eradication, Table 8
Procedure: as §2

A. baumannii 1646 [11] = experiment: minimal bactericidal concentration (MBC) assay, strain 1646; assay type: cell-based, Acinetobacter baumannii
Excerpt: (§3) Lead quinazolines 4, 5, 26, 29, 27, and 30 were selected to be further evaluated for antimicrobial effects. The first assay utilized was a minimal bactericidal concentration (MBC) assay, to assess whether leads compounds were bacteriostatic or bactericidal. The six lead agents were screened to identify their MBC90 towards each of the six A. baumannii isolates used in the SAR studies (Table 8), however for simplicity only the representative data for isolate 1646 is detailed below (Table 6). […] Further to this, we were able to obtain complete eradication of bacterial growth for these two compounds at 1 μM for 24 and 5 μM for 25.
as §1

A. baumannii 1651 [12] = experiment: minimal bactericidal concentration (MBC) assay, strain 1651; assay type: cell-based; settings: Acinetobacter baumannii, Table 8, read-out: MBC90 1651
Excerpt: as §3, §1

A. baumannii = experiment: MIC assay, A. baumannii isolates (strain not given); assay type: cell-based, Acinetobacter baumannii; settings: Acinetobacter baumannii; most isolates besides the 1652 strain; read-out: MIC against most isolates
Procedure: as §1

[13] = system: A. baumannii 1646 biofilm; experiment: biofilm eradication determination assay, strain 1646; assay type: cell-based, Acinetobacter baumannii; settings: for MBEC90: Table 6, representative data for isolate 1646; for reduction in biofilm viability: at 50 μM; for reduction in biofilm viability / MBEC90 1646: strain 1646; for MBEC90 1646: 90% biofilm eradication, Table 8 and text
Procedure: as §2

A. baumannii 1652 [14] = experiment: minimal bactericidal concentration (MBC) assay, strain 1652; assay type: cell-based; settings: Acinetobacter baumannii, Table 8, read-out: MBC90 1652
Excerpt: as §3, §1

A. baumannii 1650 [15] = experiment: minimal bactericidal concentration (MBC) assay, strain 1650; assay type: cell-based; settings: Acinetobacter baumannii, Table 8, read-out: MBC90 1650
Excerpt: as §3, §1

A. baumannii 1403 [16] = experiment: minimal bactericidal concentration (MBC) assay, strain 1403; assay type: cell-based; settings: Acinetobacter baumannii, Table 8, read-out: MBC90 1403
Excerpt: as §3, §1

A. baumannii 1649 [17] = experiment: minimal bactericidal concentration (MBC) assay, strain 1649; assay type: cell-based; settings: Acinetobacter baumannii, Table 8, read-out: MBC90 1649
Excerpt: as §3, §1

[18] = system: A. baumannii 1651 biofilm; experiment: biofilm eradication determination assay, strain 1651; assay type: cell-based, Acinetobacter baumannii; settings: 90% biofilm eradication, Table 8
Procedure: as §2

[19] = Tables 1, 3, 4, 5 and footnotes, read-out: 1650 MIC
[20] = strain 1646, Tables 1, 3, 4, 5 and footnotes, read-out: 1646 MIC
[21] = Tables 1, 3, 4, 5 and footnotes, read-out: 1649 MIC
[22] = Tables 1, 3, 4, 5 and footnotes, read-out: 1651 MIC
[23] = Tables 1, 3, 4, 5 and footnotes, read-out: 1652 MIC
[24] = Tables 1, 3, 4, 5 and footnotes, read-out: 1403 MIC
[25] = lead quinazolines, Table 8, read-out: MIC 1650
[26] = at 25 μM (highest concentration tested)
[27] = Table 6, representative data for isolate 1646, read-out: MIC
[28] = strain 1646, lead quinazolines, Table 8, read-out: MIC 1646
[29] = Acinetobacter baumannii, 1646, strain 1646, Table 8 and text, read-out: MBC90 1646
[30] = Acinetobacter baumannii, Table 6, representative data for isolate 1646, read-out: MBC90
[31] = lead quinazolines, Table 8, read-out: MIC 1649
[32] = lead quinazolines, Table 8, read-out: MIC 1651
[33] = lead quinazolines, Table 8, read-out: MIC 1652
[34] = lead quinazolines, Table 8, read-out: MIC 1403

| SMILES | MIC (A. baumannii 1650 [1]; [19]) [µM] | HepG2 cell viability (human HepG2 cells; human, 48 h, 25 μM) [%] | MIC (A. baumannii 1646 [2]; [20]) [µM] | MIC (A. baumannii 1649 [3]; [21]) [µM] | MIC (A. baumannii 1651 [4]; [22]) [µM] | increase in MIC over the 8-day test period (A. baumannii strain 1403) [fold] | MIC (A. baumannii 1652 [5]; [23]) [µM] | MIC (A. baumannii 1403 [6]; [24]) [µM] | MBEC90 1650 [7] [µM] | MBEC90 1403 [8] [µM] | MBEC90 1652 [9] [µM] | MBEC90 1649 [10] [µM] | MIC (A. baumannii 1650 [1]; [25]) [µM] | HepG2 cell viability (human HepG2 cells; [26]) [%] | LD50(HepG2) (human HepG2 cells; human, 48 h) [µM] | MIC (A. baumannii 1646 [2]; [27]) [µM] | MIC (A. baumannii 1646 [2]; [28]) [µM] | MBC (A. baumannii 1646 [11]; [29]) [µM] | MBC (A. baumannii 1646 [11]; [30]) [µM] | MIC (A. baumannii 1649 [3]; [31]) [µM] | other results |
| --- | --- | --- | --- | --- | --- | --- | --- | --- | --- | --- | --- | --- | --- | --- | --- | --- | --- | --- | --- | --- | --- |
| Cc1cc(NS(=O)(=O)c2ccc(N)cc2)no1 [SMX, Sulfamethoxazole, reference compound] | 118 (≈ 29.9 µg/mL) | 46 | 118 (≈ 29.9 µg/mL) | 118 (≈ 29.9 µg/mL) | 118 (≈ 29.9 µg/mL) | 128 | 118 (≈ 29.9 µg/mL) | 138 (≈ 35 µg/mL) | – | – | – | – | – | – | – | – | – | – | – | – | – |
| CNc1nc(NCc2ccccc2)nc2ccc(C3=CCCCC3)cc12 [Compound 29, N^2-Benzyl-6-(cyclohex-1-en-1-yl)-N^4-methylquinazoline-2,4-diamine] | 10 (≈ 3.44 µg/mL) | – | 2 (≈ 0.689 µg/mL) | 10 (≈ 3.44 µg/mL) | 2 (≈ 0.689 µg/mL) | – | 30 (≈ 10.3 µg/mL) | 2 (≈ 0.689 µg/mL) | 48 | 20 | 77 | 58 | 10 (≈ 3.44 µg/mL) | 32 | 23 | 2 (≈ 0.689 µg/mL) | 2 (≈ 0.689 µg/mL) | 1.5 (≈ 0.517 µg/mL) | 1.5 (≈ 0.517 µg/mL) | 8 (≈ 2.76 µg/mL) | HepG2 cell viability (human HepG2 cells; at 12 μM): 42%; MBC (A. baumannii 1651 [12]): 4 µM (≈ 1.38 µg/mL); MIC (A. baumannii): 2 µM (≈ 0.689 µg/mL); MBEC90 [13]: 8.9 µM; reduction in biofilm viability [13]: 1.6 log; MBEC90 1646 [13]: 8.9 µM; MBC (A. baumannii 1652 [14]): 11 µM (≈ 3.79 µg/mL); MIC (A. baumannii 1651 [4]; [32]): 2 µM (≈ 0.689 µg/mL); MBC (A. baumannii 1650 [15]): 16 µM (≈ 5.51 µg/mL); MIC (A. baumannii 1652 [5]; [33]): 30 µM (≈ 10.3 µg/mL); MBC (A. baumannii 1403 [16]): 22 µM (≈ 7.58 µg/mL); MBC (A. baumannii 1649 [17]): 9.1 µM (≈ 3.13 µg/mL); MBEC90 1651 [18]: 21 µM; MIC (A. baumannii 1403 [6]; [34]): 3 µM (≈ 1.03 µg/mL) |
| COc1cc(Cc2cnc(N)nc2N)cc(OC)c1OC [TMP, trimethoprim, reference compound] | 120 (≈ 34.8 µg/mL) | 45 | 34 (≈ 9.87 µg/mL) | 517 (≈ 150 µg/mL) | 103 (≈ 29.9 µg/mL) | 64 | 103 (≈ 29.9 µg/mL) | 103 (≈ 29.9 µg/mL) | – | – | – | – | – | – | – | – | – | – | – | – | – |
| CNc1nc(NCc2ccccc2)nc2ccc(C3CCCCC3)cc12 [Compound 30, N^2-Benzyl-6-cyclohexyl-N^4-methylquinazoline-2,4-diamine] | 2 (≈ 0.693 µg/mL) | – | 2 (≈ 0.693 µg/mL) | 2 (≈ 0.693 µg/mL) | 2 (≈ 0.693 µg/mL) | – | 10 (≈ 3.46 µg/mL) | 2 (≈ 0.693 µg/mL) | 46 | 21 | >100 | 68 | 20 (≈ 6.93 µg/mL) | 39 | 11 | 2 (≈ 0.693 µg/mL) | 2 (≈ 0.693 µg/mL) | 1.1 (≈ 0.381 µg/mL) | 1.1 (≈ 0.381 µg/mL) | 15 (≈ 5.2 µg/mL) | MBC (A. baumannii 1651 [12]): 28 µM (≈ 9.7 µg/mL); MIC (A. baumannii): 2 µM (≈ 0.693 µg/mL); MBEC90 [13]: 41.2 µM; reduction in biofilm viability [13]: 4.2 log; MBEC90 1646 [13]: 41 µM; MBC (A. baumannii 1652 [14]): 17 µM (≈ 5.89 µg/mL); MIC (A. baumannii 1651 [4]; [32]): 20 µM (≈ 6.93 µg/mL); MBC (A. baumannii 1650 [15]): 22 µM (≈ 7.62 µg/mL); MIC (A. baumannii 1652 [5]; [33]): 20 µM (≈ 6.93 µg/mL); MBC (A. baumannii 1403 [16]): 32 µM (≈ 11.1 µg/mL); MBC (A. baumannii 1649 [17]): 33 µM (≈ 11.4 µg/mL); MBEC90 1651 [18]: 33 µM; MIC (A. baumannii 1403 [6]; [34]): 20 µM (≈ 6.93 µg/mL) |
